Assay [1] deals with acetylation of tubulin and induction of Hsp 70. Description: Acetylation of tubulin and induction of Hsp 70 in A2780 cells. It counts as cell-based, human. The settings on record: A2780 ovarian carcinoma cells, 24 h, 0-3000 nM, Western blot. The method, then:
Total cell lysates were prepared and analysed by SDS-PAGE. […] Hsp 70 protein was detected with an antibody from Stressgen (Cat. nr. SPA-810), followed by ECL detection. Appropriate dilutions of antibodies were incubated for either 1-2 h at room temperature or overnight at 4° C. In order to control for equal loading, blots were stripped and re-probed with mouse monoclonal anti-actin IgM (Ab-1, Oncogene Research Products). […] Protein-antibody complexes were then visualized by chemiluminescence (Pierce Chemical Co) or fluorescence (Odyssey) according to the manufacturer's instructions. The experiments were performed three times.
In general terms: In western blotting, separated proteins are transferred to a membrane and probed.

Assay [2] deals with acetylation of histone H3 and H4 and induction of p21waf1,cip1. The assay is described as follows: Acetylation of cellular HDAC 1 substrates and induction of p21waf1,cip1 in A2780 cells. Type of assay: cell-based, human. The settings on record: A2780 ovarian carcinoma cells, 24 h, 0-3000 nM, Western blot. The method, then: Total cell lysates were prepared and analysed by SDS-PAGE. Levels of acetylated H3 and H4 histones, total level of H3 proteins and levels p21^waf1,cip1 protein were detected using rabbit polyclonal and mouse monoclonal antibodies, followed by enhanced chemoluminescence (ECL) detection.
Appropriate dilutions of antibodies were incubated for either 1-2 h at room temperature or overnight at 4° C. […] Protein-antibody complexes were then visualized by chemiluminescence (Pierce Chemical Co) or fluorescence (Odyssey) according to the manufacturer's instructions. The experiments were performed three times.

The subject of a further assay is HCT-116 cells. The settings on record: p21waf1,cip1 deficient cells as compared to the parental HCT-116 cells; cited from earlier work.

As for `Cc1[nH]c2ccccc2c1CCNCc1ccc(/C=C/C(=O)NO)cc1` [LBH-589], the “concentration when start of induction of acetylation of tubulin and induction of Hsp 70 is observed” value in assay [1] worked out at 30 nM.

As for `O=C(NO)c1cnc(N2CCN(S(=O)(=O)c3ccc4ccccc4c3)CC2)nc1` [R306465], the “concentration when induction of acetylation of histone H3 and H4 and induction of p21waf1,cip1 is observed” value in assay [2] came to 100 nM.

For the compound `O=C(CCCCCCC(=O)Nc1ccccc1)NO` [SAHA, suberoylanilide hydroxamic acid], the “concentration when start of induction of acetylation of tubulin and induction of Hsp 70 is observed” value in assay [1] stood at 100 nM. In addition, the “concentration when induction of acetylation of histone H3 and H4 and induction of p21waf1,cip1 is observed” value in assay [2] turned out to be 3000 nM.

Consider `CC(/C=C/C(=O)NO)=C\[C@@H](C)C(=O)c1ccc(N(C)C)cc1` [trichostatin A], for which, in the assay on HCT-116 cells, the “increase in resistance to the HDAC inhibitor” value is on record as 6 fold.

Values taken from patent US20090312284A1, “HISTONE DEACETYLASE INHIBITORS WITH COMBINED ACTIVITY ON CLASS-I AND CLASS-IIB HISTONE DEACETYLASES IN COMBINATION WITH PROTEASOME INHIBITORS” (priority 2006, published 2009).
